Legend:
Assay in all cases: KINOMEscan competition binding, single concentration
Conditions in all cases: read-out: % Ctrl @ 100nM
ABL1-nonphosphorylated [1] = target: T1, ABL1-nonphosphorylated (Homo sapiens, UniProt P00519)
T1 construct: KINOMEscan (Ambit) panel kinase, nonphosphorylated form
Text: (§1) KINOMEscan competition binding, single concentration on ABL1-nonphosphorylated

ABL1-nonphosphorylated [2] = target: T2, ABL1-nonphosphorylated (Homo sapiens, UniProt P00519, T315I)
T2 construct: KINOMEscan (Ambit) panel kinase, nonphosphorylated form
Text: as §1

BLK = target: T3, BLK (Homo sapiens, UniProt P51451)
T3 construct: KINOMEscan (Ambit) panel kinase
T3 sequence (P51451 2-505): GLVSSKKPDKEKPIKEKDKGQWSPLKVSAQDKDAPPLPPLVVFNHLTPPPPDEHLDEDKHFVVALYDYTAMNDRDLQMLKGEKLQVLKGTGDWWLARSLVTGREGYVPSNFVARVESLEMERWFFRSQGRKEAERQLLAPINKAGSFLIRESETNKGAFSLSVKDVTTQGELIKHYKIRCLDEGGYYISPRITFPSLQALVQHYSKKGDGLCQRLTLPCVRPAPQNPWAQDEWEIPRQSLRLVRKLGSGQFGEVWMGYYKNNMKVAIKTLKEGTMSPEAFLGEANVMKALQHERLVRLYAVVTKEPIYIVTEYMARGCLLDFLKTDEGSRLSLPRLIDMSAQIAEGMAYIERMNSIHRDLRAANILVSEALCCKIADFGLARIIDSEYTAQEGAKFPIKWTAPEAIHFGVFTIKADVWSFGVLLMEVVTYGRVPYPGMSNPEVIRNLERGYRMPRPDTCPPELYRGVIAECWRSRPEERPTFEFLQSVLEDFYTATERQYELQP
Text: KINOMEscan competition binding, single concentration on BLK

LYN = target: T4, LYN (Homo sapiens, UniProt P07948)
T4 construct: KINOMEscan (Ambit) panel kinase
Text: KINOMEscan competition binding, single concentration on LYN

FLT3 = target: T5, FLT3 (Homo sapiens, UniProt P36888)
T5 construct: KINOMEscan (Ambit) panel kinase
T5 sequence (P36888 27-993): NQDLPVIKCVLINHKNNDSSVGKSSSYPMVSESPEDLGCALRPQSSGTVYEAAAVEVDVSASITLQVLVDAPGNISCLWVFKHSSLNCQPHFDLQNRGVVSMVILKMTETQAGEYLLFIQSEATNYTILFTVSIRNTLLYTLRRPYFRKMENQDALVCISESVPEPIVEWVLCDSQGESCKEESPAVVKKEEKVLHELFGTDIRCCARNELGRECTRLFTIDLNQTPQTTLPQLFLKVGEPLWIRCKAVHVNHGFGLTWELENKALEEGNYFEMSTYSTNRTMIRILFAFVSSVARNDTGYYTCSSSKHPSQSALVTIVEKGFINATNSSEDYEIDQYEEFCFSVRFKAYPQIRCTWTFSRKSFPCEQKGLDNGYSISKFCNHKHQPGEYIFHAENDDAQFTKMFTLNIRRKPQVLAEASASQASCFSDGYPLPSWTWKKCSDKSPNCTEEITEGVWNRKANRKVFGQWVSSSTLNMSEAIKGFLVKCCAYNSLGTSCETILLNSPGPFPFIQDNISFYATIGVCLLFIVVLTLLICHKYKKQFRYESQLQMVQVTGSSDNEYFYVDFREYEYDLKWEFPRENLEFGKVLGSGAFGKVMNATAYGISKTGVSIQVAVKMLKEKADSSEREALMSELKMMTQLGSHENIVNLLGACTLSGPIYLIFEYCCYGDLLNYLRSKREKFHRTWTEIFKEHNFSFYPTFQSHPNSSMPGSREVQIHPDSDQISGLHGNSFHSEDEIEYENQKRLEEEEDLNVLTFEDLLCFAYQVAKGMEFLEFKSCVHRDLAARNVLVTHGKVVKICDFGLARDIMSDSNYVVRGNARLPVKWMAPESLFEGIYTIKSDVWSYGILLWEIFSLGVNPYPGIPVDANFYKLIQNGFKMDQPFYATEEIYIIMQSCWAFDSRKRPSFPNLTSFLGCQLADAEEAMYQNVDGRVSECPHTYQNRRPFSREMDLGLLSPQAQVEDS
Text: KINOMEscan competition binding, single concentration on FLT3

KIT = target: T6, KIT (Homo sapiens, UniProt P10721)
T6 construct: KINOMEscan (Ambit) panel kinase
T6 sequence (P10721 26-976): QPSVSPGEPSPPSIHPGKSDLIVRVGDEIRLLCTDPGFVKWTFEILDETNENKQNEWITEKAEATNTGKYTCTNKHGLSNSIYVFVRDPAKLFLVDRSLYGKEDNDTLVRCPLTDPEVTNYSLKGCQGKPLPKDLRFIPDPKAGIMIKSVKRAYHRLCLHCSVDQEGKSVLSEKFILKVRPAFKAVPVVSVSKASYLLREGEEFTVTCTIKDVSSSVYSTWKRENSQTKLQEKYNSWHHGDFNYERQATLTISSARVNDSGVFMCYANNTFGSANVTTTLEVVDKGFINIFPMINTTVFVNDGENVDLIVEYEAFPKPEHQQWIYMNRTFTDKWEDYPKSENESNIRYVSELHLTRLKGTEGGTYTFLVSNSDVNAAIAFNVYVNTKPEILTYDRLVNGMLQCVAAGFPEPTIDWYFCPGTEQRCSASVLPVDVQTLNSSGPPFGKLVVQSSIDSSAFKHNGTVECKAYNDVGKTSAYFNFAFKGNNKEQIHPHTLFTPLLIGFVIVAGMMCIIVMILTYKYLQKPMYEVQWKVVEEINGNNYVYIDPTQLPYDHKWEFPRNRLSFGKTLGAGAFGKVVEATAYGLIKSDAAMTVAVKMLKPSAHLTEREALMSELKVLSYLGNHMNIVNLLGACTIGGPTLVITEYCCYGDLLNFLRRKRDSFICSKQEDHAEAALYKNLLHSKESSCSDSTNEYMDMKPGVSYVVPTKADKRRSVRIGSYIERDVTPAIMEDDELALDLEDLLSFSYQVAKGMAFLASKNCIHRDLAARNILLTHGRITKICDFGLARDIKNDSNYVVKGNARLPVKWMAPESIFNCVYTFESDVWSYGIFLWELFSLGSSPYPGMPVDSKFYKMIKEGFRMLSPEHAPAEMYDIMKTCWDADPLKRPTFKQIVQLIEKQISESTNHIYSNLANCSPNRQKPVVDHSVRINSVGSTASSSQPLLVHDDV
Text: KINOMEscan competition binding, single concentration on KIT

PLK1 = target: T7, PLK1 (Homo sapiens, UniProt P53350)
T7 construct: KINOMEscan (Ambit) panel kinase
T7 sequence (P53350 2-603): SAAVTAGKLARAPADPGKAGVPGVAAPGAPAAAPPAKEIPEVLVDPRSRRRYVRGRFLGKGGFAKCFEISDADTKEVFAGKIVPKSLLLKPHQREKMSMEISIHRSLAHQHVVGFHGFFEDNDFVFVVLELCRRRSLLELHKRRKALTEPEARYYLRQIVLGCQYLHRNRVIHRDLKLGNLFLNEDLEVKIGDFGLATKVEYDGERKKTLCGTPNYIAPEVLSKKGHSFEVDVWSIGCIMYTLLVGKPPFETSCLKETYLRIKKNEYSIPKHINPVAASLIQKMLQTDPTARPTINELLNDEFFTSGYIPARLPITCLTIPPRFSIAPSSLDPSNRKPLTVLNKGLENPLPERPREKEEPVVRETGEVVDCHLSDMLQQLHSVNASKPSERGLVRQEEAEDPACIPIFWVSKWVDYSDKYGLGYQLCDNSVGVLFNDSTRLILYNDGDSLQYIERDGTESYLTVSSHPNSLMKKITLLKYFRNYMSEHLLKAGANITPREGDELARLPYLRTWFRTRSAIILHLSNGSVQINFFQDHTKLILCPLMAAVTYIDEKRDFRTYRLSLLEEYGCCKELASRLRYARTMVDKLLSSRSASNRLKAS
Text: KINOMEscan competition binding, single concentration on PLK1

PDGFRβ = target: T8, PDGFRβ (Homo sapiens, UniProt P09619)
T8 construct: gene PDGFRB; KINOMEscan (Ambit) panel kinase
T8 sequence (P09619 33-1106): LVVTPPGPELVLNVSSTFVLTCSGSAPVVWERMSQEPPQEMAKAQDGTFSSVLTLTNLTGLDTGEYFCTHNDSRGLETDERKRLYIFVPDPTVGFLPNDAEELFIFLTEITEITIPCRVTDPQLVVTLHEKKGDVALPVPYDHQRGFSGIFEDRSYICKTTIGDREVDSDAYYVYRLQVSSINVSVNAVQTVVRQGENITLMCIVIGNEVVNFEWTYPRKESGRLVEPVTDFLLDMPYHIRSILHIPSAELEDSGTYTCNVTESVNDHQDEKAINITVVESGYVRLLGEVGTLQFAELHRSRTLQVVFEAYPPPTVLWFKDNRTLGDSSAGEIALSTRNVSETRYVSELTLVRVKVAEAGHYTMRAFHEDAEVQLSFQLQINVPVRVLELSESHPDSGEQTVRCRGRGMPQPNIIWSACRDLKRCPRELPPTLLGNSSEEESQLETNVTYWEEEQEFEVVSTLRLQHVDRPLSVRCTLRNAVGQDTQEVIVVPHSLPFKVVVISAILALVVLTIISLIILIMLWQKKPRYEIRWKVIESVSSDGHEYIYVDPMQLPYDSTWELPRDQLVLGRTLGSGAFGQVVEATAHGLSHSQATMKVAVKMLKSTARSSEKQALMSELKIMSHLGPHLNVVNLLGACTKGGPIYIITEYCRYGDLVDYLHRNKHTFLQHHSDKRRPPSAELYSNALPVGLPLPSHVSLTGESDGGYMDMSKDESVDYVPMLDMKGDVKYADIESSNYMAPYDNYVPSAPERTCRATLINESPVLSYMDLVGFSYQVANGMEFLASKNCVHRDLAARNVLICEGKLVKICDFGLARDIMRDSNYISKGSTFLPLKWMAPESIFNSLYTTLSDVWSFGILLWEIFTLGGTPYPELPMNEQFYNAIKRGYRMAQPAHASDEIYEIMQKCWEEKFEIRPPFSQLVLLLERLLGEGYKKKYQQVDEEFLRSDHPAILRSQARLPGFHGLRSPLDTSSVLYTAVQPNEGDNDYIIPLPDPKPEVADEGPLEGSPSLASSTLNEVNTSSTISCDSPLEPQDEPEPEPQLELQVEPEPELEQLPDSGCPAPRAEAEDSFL
Text: KINOMEscan competition binding, single concentration on PDGFRβ

SRC = target: T9, SRC (Homo sapiens, UniProt P12931)
T9 construct: KINOMEscan (Ambit) panel kinase
Text: KINOMEscan competition binding, single concentration on SRC

CDK2 = target: T10, CDK2 (Homo sapiens, UniProt P24941)
T10 construct: KINOMEscan (Ambit) panel kinase; no cyclin named
Text: KINOMEscan competition binding, single concentration on CDK2

HCK = target: T11, HCK (Homo sapiens, UniProt P08631)
T11 construct: KINOMEscan (Ambit) panel kinase
T11 sequence (P08631 2-526): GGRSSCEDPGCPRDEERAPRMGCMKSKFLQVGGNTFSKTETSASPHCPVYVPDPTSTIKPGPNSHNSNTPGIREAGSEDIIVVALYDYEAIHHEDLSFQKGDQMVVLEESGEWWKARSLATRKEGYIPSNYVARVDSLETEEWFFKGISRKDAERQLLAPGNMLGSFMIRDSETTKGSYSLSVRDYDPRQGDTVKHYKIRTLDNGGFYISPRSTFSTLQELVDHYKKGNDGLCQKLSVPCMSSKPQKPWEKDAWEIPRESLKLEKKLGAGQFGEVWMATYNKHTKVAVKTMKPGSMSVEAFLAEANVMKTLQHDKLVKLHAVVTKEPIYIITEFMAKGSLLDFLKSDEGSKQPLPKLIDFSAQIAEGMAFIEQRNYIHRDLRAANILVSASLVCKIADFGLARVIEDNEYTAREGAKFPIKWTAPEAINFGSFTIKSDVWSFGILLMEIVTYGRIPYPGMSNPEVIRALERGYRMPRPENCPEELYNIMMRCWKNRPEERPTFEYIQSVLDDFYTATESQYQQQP
Text: KINOMEscan competition binding, single concentration on HCK

PDGFRα = target: T12, PDGFRα (Homo sapiens, UniProt P16234)
T12 construct: gene PDGFRA; KINOMEscan (Ambit) panel kinase
Text: KINOMEscan competition binding, single concentration on PDGFRα

TIE2 = target: T13, TIE2 (Homo sapiens, UniProt Q02763)
T13 construct: gene TEK; KINOMEscan (Ambit) panel kinase
T13 sequence (Q02763 23-1124): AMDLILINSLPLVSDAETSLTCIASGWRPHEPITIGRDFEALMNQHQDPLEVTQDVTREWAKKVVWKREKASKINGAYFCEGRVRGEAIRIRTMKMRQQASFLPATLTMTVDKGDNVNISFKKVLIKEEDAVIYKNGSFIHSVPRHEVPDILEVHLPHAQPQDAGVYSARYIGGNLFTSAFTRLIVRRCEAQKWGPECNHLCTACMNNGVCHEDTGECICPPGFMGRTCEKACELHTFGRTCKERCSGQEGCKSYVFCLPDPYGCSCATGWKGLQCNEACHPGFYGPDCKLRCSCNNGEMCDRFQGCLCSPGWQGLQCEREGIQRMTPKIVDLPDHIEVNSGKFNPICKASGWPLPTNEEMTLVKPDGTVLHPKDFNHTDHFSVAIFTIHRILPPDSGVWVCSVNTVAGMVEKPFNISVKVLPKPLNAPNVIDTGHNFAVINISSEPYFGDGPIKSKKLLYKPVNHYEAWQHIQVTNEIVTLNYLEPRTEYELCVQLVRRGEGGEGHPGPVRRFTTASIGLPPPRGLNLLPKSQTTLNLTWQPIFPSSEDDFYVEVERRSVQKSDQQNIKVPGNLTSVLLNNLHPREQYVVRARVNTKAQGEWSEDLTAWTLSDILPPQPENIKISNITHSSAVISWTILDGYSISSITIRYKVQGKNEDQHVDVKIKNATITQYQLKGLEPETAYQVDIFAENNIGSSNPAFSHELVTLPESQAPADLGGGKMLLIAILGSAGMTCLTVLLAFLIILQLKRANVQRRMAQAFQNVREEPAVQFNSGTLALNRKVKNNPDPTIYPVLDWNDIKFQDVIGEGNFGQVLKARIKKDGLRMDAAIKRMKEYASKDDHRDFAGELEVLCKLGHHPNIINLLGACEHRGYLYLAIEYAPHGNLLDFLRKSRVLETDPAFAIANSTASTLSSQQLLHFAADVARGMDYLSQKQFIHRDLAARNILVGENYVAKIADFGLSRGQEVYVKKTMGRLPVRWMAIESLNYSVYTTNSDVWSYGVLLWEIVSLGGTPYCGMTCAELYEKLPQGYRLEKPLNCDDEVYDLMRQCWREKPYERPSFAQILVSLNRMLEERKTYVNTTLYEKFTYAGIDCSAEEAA
Text: KINOMEscan competition binding, single concentration on TIE2

LCK = target: T14, LCK (Homo sapiens, UniProt P06239)
T14 construct: KINOMEscan (Ambit) panel kinase
Text: KINOMEscan competition binding, single concentration on LCK

- remaining binding at 0.1 µM (ABL1-nonphosphorylated [1]): 18%
- remaining binding at 0.1 µM (ABL1-nonphosphorylated [2]): 20%
- remaining binding at 0.1 µM (BLK): 10%
- remaining binding at 0.1 µM (LYN): 16%
- remaining binding at 0.1 µM (FLT3): 1.8%
- remaining binding at 0.1 µM (KIT): 6.8%
- remaining binding at 0.1 µM (PLK1): 100%
- remaining binding at 0.1 µM (PDGFRβ): 3.3%
- remaining binding at 0.1 µM (SRC): 33%
- remaining binding at 0.1 µM (CDK2): 99%
- remaining binding at 0.1 µM (HCK): 6.2%
- remaining binding at 0.1 µM (PDGFRα): 26%
- remaining binding at 0.1 µM (TIE2): 0.85%
- remaining binding at 0.1 µM (LCK): 3.4%
SMILES: Cc1ccc(C(=O)Nc2cc(-n3ccnc3)cc(C(F)(F)F)c2)cc1C#Cc1cnc(NC2CC2)nc1 [S116836]

Reference: article PMC4279382, “Antitumor activity of S116836, a novel tyrosine kinase inhibitor, against imatinib-resistant FIP1L1-PDGFRα-expressing cells” (Oncotarget, 2014)
